Experimental data from article PMC12469269, “Investigating SMR Peptide Interactions with Breast Cancer-Associated Proteins” (International Journal of Molecular Sciences, 2025).
“Also recorded” adds a separate entry of the source.

Legend:
Mortalin (Grp-75) = assay: Co-immunoprecipitation / Western blot, Mortalin; assay type: binding, human; conditions: MDA-MB-231, MCF-7, BT474 lysates; anti-FLAG M2 resin, 4 °C overnight
Description: MDA-MB-231, MCF-7, and BT474 BC cells were grown in RPMI 1640 medium containing 10% FBS at 37 °C in a T-75 tissue culture flask and collected via centrifugation at 1000× g for 20 min at 4 °C. The cell pellet was resuspended in 1 mL of 1X PBS and transferred to a 1.5 mL Eppendorf tube. Following microcentrifugation at 1000× g for 1 min, the pellet was resuspended in 1 mL of α-FLAG Lysis buffer through gentle pipetting (50 mM Tris HCl, pH 7.4; 150 mM sodium chloride [NaCl]; 1 mM EDTA; and 1% Triton X-100, with 1 mM phenylmethyl sulfonyl fluoride [PMSF] and 10 µL/mL Protease Inhibitor Cocktail with mammalian cell and tissue extracts [PIC; Sigma-Aldrich] added immediately before use). The suspension was differentially microcentrifuged at 2000× g for 5 min and at 13,000× g for 10 min to pellet the cell debris and DNA, respectively, and the supernatant (hereafter referred to as the Lysate) was collected. In total, 1 milligram of Lysate protein and 1 milligram of the SMRwt or SMRmut peptide were added to 20 µL of Anti-FLAG® M2 Affinity Gel (resin; Sigma). […]
Cell proteins were analyzed using Western blot analysis, as described previously. […] Protein bands were detected using Western blotting Luminol Reagent (Santa Cruz Biotechnology, Inc., Santa Cruz, CA, USA). […]

[1] = test system: exNef-GFP secretion in MDA-MB-231, MCF-7, BT474 BC cells and Jurkat T cells; assay: Nef-driven exNef-GFP secretion (Figure 3), three BC cell lines and Jurkat T cells; assay type: cell-based, human
Description: Figure 3 Effects of Mortalin-derived peptides on viral Nef-driven exNef secretion. (A) MDA-MB-231, (B) MCF-7, (C) BT474 BC cells, and (D) Jurkat T cells were co-transfected with 1 µg of wild-type Nef-GFP clone and 200 ng of various Mortalin-scanning peptides. The cells were then placed in a 24-well plate and incubated at 37 °C for 24 h before being assayed for extracellular vesicle secretion. Cells were also co-transfected with SMRwt or SMRmut peptides as positive and negative controls, respectively. The amount of GFP fluorescence measured was equivalent to the amount of exNef-GFP in the extracellular media. […] The bar graphs display relative levels of exosome release. In here, asterisks (* p < 0.05, ** p < 0.005, *** p < 0.0005, and **** p < 0.00005) are used to indicate levels of statistical significance. The more asterisks, the stronger the statistical significance. Data represents the mean ± SD from three independent experiments.
Co-transfections of cells with peptides were carried out using Lipofectamine Reagent (Fisher Scientific), following the manufacturer’s protocol. One day prior to transfection, cells were trypsinized and plated at a density of 6.25 × 10^5 cells per well in 2 mL of complete growth medium. […] The cell transfection efficiency was calculated by counting the green, fluorescent cells using a fluorescence microscope.

Substance	co-immunoprecipitation with Mortalin, in words (Mortalin (Grp-75))	effect on Nef function (exNef-GFP secretion), in words ([1]; 1 µg Nef-GFP + 200 ng peptide, co-transfected, 37 °C, 24 h, GFP fluorescence, three independent experiments)	interaction with NefSMR domain / Nef / SMRwt peptide, in words ([1]; inferred from exNef secretion (Figures 2 and 3))
^66Ala-Gly-Phe-Pro-Val^70 [SMRmut, 5-mer negative control, Val66 changed to Ala]	not SMRmut, co-immunoprecipitated with Mortalin	–	–
DQLPADECNKLKEEISKMRE [#61, Mortalin scanning peptide 61]	–	significant reduction in exNef-GFP secretion; also recorded: inhibit Nef function	bind HIV-1 Nef and the SMRwt peptide; also recorded: can interact with the NefSMR domain; also recorded: bound the SMR domain and effectively inhibited Nef activity
